Results reported in ChEMBL document CHEMBL1158912, “Structure and in vitro antiviral activity of sesquiterpene glycosides from Calendula arvensis” (J Nat Prod, 1990).
≈ marks a conversion by molar mass, not a printed value.

What was measured:
rhinovirus A1B [1] = assay: Antiviral activity against HRV1B infected in human HeLa cells assessed as inhibition of virus-induced cytopathicity at 20 ug/ml after 48 hrs; type: functional, Human rhinovirus 1B; parameters: scale not given: the % may be the effect or the level left
[2] = Cytotoxicity against golden hamster CER cells assessed as cell viability at 20 ug/mL after 48 hrs by neutral red assay; type: cell-based, Mesocricetus auratus
HeLa [3] = assay: Cytotoxicity against human HeLa cells assessed as cell viability at 20 ug/mL after 48 hrs by neutral red assay; type: cell-based
rhinovirus A1B [4] = assay: Antiviral activity against HRV1B infected in human HeLa cells assessed as inhibition of virus-induced cytopathicity at 4 ug/ml after 48 hrs; type: functional, Human rhinovirus 1B; parameters: scale not given: the % may be the effect or the level left
HeLa [5] = assay: Cytotoxicity against human HeLa cells assessed as cell viability at 100 ug/mL after 48 hrs by neutral red assay; type: cell-based
[6] = tested on: Vesicular stomatitis virus; assay: Antiviral activity against VSV infected in CER cells assessed as reduction in plaque formation at 4 ug/ml after 48 hrs by neutral red assay; type: functional; parameters: scale not given: the % may be the effect or the level left
[7] = tested on: Vesicular stomatitis virus; assay: Antiviral activity against VSV infected in CER cells assessed as reduction in plaque formation after 48 hrs by neutral red assay; type: functional
[8] = tested on: Vesicular stomatitis virus; assay: Antiviral activity against VSV infected in CER cells assessed as reduction in plaque formation at 0.8 ug/ml after 48 hrs by neutral red assay; type: functional; parameters: scale not given: the % may be the effect or the level left
[9] = Cytotoxicity against golden hamster CER cells assessed as cell viability at 100 ug/mL after 48 hrs by neutral red assay; type: cell-based, Mesocricetus auratus
[10] = tested on: Vesicular stomatitis virus; assay: Antiviral activity against VSV infected in CER cells assessed as reduction in plaque formation at 20 ug/ml after 48 hrs by neutral red assay; type: functional; parameters: scale not given: the % may be the effect or the level left
rhinovirus A1B [11] = assay: Antiviral activity against HRV1B infected in human HeLa cells assessed as inhibition of virus-induced cytopathicity at 0.8 ug/ml after 48 hrs; type: functional, Human rhinovirus 1B; parameters: scale not given: the % may be the effect or the level left
[12] = tested on: Vesicular stomatitis virus; assay: Antiviral activity against VSV infected in CER cells assessed as reduction in plaque formation at 50 ug/ml after 48 hrs by neutral red assay; type: functional; parameters: scale not given: the % may be the effect or the level left
rhinovirus A1B [13] = assay: Antiviral activity against HRV1B infected in human HeLa cells assessed as inhibition of virus-induced cytopathicity at 50 ug/ml after 48 hrs; type: functional, Human rhinovirus 1B; parameters: scale not given: the % may be the effect or the level left
[14] = tested on: Vesicular stomatitis virus; assay: Antiviral activity against VSV infected in CER cells assessed as reduction in plaque formation at 100 ug/ml after 48 hrs by neutral red assay; type: functional; parameters: scale not given: the % may be the effect or the level left
rhinovirus A1B [15] = assay: Antiviral activity against HRV1B infected in human HeLa cells assessed as inhibition of virus-induced cytopathicity at 100 ug/ml after 48 hrs; type: functional, Human rhinovirus 1B; parameters: scale not given: the % may be the effect or the level left

Structure (SMILES) | Activity (rhinovirus A1B [1]) [%] | Activity [2] | Activity (HeLa [3]) | Activity (rhinovirus A1B [4]) [%] | Activity (HeLa [5]) | Activity [6] [%] | MIC50 [7] [µg/mL] | Activity [8] [%] | Activity [9] | Activity [10] [%] | Activity (rhinovirus A1B [11]) [%] | Activity [12] [%] | Activity (rhinovirus A1B [13]) [%] | Activity [14] [%] | Activity (rhinovirus A1B [15]) [%]
C[C@@H]1CC[C@H]2[C@@H]1[C@H]1[C@@H](CC[C@@]2(C)O[C@@H]2O[C@H](C)[C@H](O)[C@H](O)[C@H]2O)C1(C)C | 0 | Non-toxic | Non-toxic | 0 | Non-toxic | 19 | 14 (≈ 38 µM) | 8 | Non-toxic | 73 | 0 | – | – | – | –
CC(C)[C@@H]1CC[C@@H](C)C23CC[C@@](C)(O[C@@H]4O[C@H](C)[C@H](O)[C@H](O)[C@H]4O)[C@@H]2[C@@H]13 (some centres undefined) [EPICUBEBOL GLYCOSIDE] | 0 | Non-toxic | Non-toxic | 0 | Non-toxic | 0 | 36 (≈ 97.7 µM) | – | Non-toxic | 4 | – | 90 | 0 | 100 | 25
C/C=C(\C)C(=O)O[C@H]1[C@H](O[C@]2(C)CC[C@@H]3[C@H]([C@@H]4[C@H](C)CC[C@@H]42)C3(C)C)O[C@H](C)[C@H](O)[C@@H]1O | 0 | Non-toxic | Non-toxic | 0 | Non-toxic | 13 | > 20 | 0 | Non-toxic | 22 | 0 | – | – | – | –
CC/C(C)=C\C(=O)O[C@H]1[C@H](O[C@]2(C)CC[C@@H]3[C@H]([C@@H]4[C@H](C)CC[C@@H]42)C3(C)C)O[C@H](C)[C@H](O)[C@@H]1O | 0 | Non-toxic | Non-toxic | 0 | Non-toxic | 18 | > 20 | 5 | Non-toxic | 22 | 0 | – | – | – | –
CC(=O)O[C@H]1[C@H](O[C@]2(C)CC[C@@H]3[C@H]([C@@H]4[C@H](C)CC[C@@H]42)C3(C)C)O[C@H](C)[C@H](O)[C@@H]1O | 0 | Non-toxic | Non-toxic | 0 | Non-toxic | 7 | > 20 | 0 | Non-toxic | 10 | 0 | – | – | – | –
CCC(C)C(=O)O[C@H]1[C@H](O[C@]2(C)CC[C@@H]3[C@H]([C@@H]4[C@H](C)CC[C@@H]42)C3(C)C)O[C@H](C)[C@H](O)[C@@H]1O (some centres undefined) | 0 | Non-toxic | Non-toxic | 0 | Non-toxic | 20 | > 20 | 5 | Non-toxic | 30 | 0 | – | – | – | –
CC(C)C(=O)O[C@H]1[C@H](O[C@]2(C)CC[C@@H]3[C@H]([C@@H]4[C@H](C)CC[C@@H]42)C3(C)C)O[C@H](C)[C@H](O)[C@@H]1O | 0 | Non-toxic | Non-toxic | 0 | Non-toxic | 0 | > 20 | 0 | Non-toxic | 9 | 0 | – | – | – | –
